Where two headings read alike, the source gives them in different places.
Tests used:
[1] = Evaluation of cortexolone-17α-propionate solubility (Example 1); assay type: physicochemical; settings: 5 g in 100 ml
Method: 5 g of cortexolone-17α-propionate was added to 100 ml of each of the solvents or solvent mixtures shown in Table 1, below, in an effort to produce a 5% w/v solution of cortexolone-17α-propionate. In the examples in Table 1, ethanol refers to ethanol 96°.

[2] = Franz cell diffusion test 1 (Example 7); assay type: in vitro ADME; settings: for Permeation rate / Skin concentration: 48 h, saturated solution, 300 mg on 2.54 cm^2 skin, 32° C.
Method: In an in vitro study, the skin penetration potential of cortexolone-17α-propionate was compared to cyproterone acetate using a standard Franz cell. According to the protocol, 300 mg of each test formulations was applied as saturated solution with a concentration ranging from 0.7 to 1 weight (w/w) to 2.54 cm^2 of exposed skin area. The receptor chamber volume ranged from 4.75 ml to 6.4 ml of phosphate buffered saline/fetal calf serum (2:1) containing penicillin/streptomycin according to standard protocol, and was maintained at a temperature of 32° C.+/−1° C. Stirring was maintained at 300 rpm.
The experiments were conducted for 48 h in triplicate. 100 μl fractions were withdrawn at 5-7 time points during the 48 h test period. After withdrawing a 100 μl fraction for analysis, it was replaced with fresh receiver fluid in an equal volume. At the end of the experiment, the skin was taken from the Franz cells and the skin's stratum corneum was removed by tape stripping (20×) with transparent adhesive tape (Koren, Spain).
The strippings were analyzed by dissolution in a mixture of propylene glycol:oeyl alcohol 9:1. The resulting mixture was analyzed for concentration of cyproterone acetate and cortexolone-17α-propionate, with the results provided in Table 12, below.

[3] = Clinical evaluation, excretion parameters at 1st and 55th application (Example 6); assay type: in vivo, human; settings: for Analyte Excreted, Free / Analyte Excreted, Total: formulation of Example 4b on scalp
Method: The formulation described in Example 4b was studied in a clinical trial to evaluate its pharmacokinetic profile, safety, and tolerability. According to the study protocol, 1 ml of the formulation (corresponding to 50 mg of cortexolone-17α-propionate) was applied once a day on study day 1 and then twice daily thereafter on study days 2-28 to the areas of the scalp suffering from alopecia. Statistical analyses were performed using SAS® version 9.1.3, service pack 4 for Windows and Phoenix WinNonLin 6.3, Pharsight Corporation, USA.

AGA [4] = experiment: Finasteride 1 mg tablets phase III clinical studies 087 and 089, published by the FDA (Example 11); assay type: in vivo, human; settings: original value divided by 5.1
Method: Based on the results of finasteride 1 mg tablets (PROPECIA®) described in the two Phase III clinical studies published online by the United States Food and Drug Administration (the FDA), it can be concluded that the mean change from baseline in non-vellus TAHC at month 6 for cortexolone-17α-propionate solution 5% (according to Example 4b), as reported in Example 9, is very similar to the mean change from baseline in non-vellus TAHC at month 6 observed in 2 phase III clinical trials on finasteride 1 mg tablets (tradename Propecia®) per os once daily. Table 20 below reports the change from baseline in TAHC at month 6 in the two finasteride studies (data of active finasteride groups) as described in the NDA for PROPECIA® published online by the FDA:
In the two finasteride studies, the target area was a 1-inch diameter circle, which corresponds to 5.1 cm^2. In order to compare the changes from baseline in TAHC at month 6 obtained in the finasteride studies and the change from baseline in TAHC at month 6 obtained with cortexolone-17α-propionate in the study of the present Example 9 (where the target area was 1 cm^2), the original finasteride data have been recalculated to take into account the differences between the total surfaces of the target areas (i.e., the values were divided by 5.1) as shown in Table 21.

[5] = system: serum DHT as well as scalp DHT; settings: single oral administration of finasteride 1 mg; cited from earlier work
AGA [6] = settings: cited from earlier work
[7] = PROPECIA package insert; 1 mg tablets; cited from earlier work
[8] = 1st Application (Day 1), N = 18
[9] = 55th Application (Day 28), N = 17

CCC(=O)O[C@]1(C(=O)CO)CC[C@H]2[C@@H]3CCC4=CC(=O)CC[C@]4(C)[C@H]3CC[C@@]21C [Cortexolone-17α-propionate, 17α-propionyloxy-21-hydroxy-pregna-4-ene-3,20-dione]
Cortexolone-17α-propionate Solubility at Room Temperature ([1]; Caprylocaproyl polyoxyl-8 glycerides NF (LABRASOL ®)): Sparingly soluble
Cortexolone-17α-propionate Solubility at Room Temperature ([1]; Ethanol (96°)): Highly soluble
Cortexolone-17α-propionate Solubility at Room Temperature ([1]; Ethanol/propylene glycol (1:1) v:v): Soluble
Cortexolone-17α-propionate Solubility at Room Temperature ([1]; Ethanol/propylene glycol/TRANSCUTOL ® (1:1:1) v:v): Very soluble
Cortexolone-17α-propionate Solubility at Room Temperature ([1]; Isopropyl myristate): Insoluble
Cortexolone-17α-propionate Solubility at Room Temperature ([1]; Isopropyl palmitate): Insoluble
Cortexolone-17α-propionate Solubility at Room Temperature ([1]; Propylene glycol): Sparingly soluble
Cortexolone-17α-propionate Solubility at Room Temperature ([1]; TRANSCUTOL ®/water (1:1) v:v): Insoluble
Cortexolone-17α-propionate Solubility at Room Temperature ([1]; TRANSCUTOL ®/water/ethanol (1:1:1) v:v): Soluble
Cortexolone-17α-propionate Solubility at Room Temperature ([1]; TRANSCUTOL ®): Very soluble
Cortexolone-17α-propionate Solubility at Room Temperature ([1]; Water/propylene glycol/TRANSCUTOL ® (1:1:1) v:v): Insoluble
Cortexolone-17α-propionate Solubility at Room Temperature ([1]; Water/propylene glycol/TRANSCUTOL ® (1:1:2) v:v): Soluble
Cortexolone-17α-propionate Solubility at Room Temperature ([1]; Water): Insoluble
Permeation rate [2]: 1410 ± 137 ng/mL/h
Skin concentration [2]: 231 ± 19 µg/g
permeates skin, times as much as cyproterone acetate ([2]; versus cyproterone acetate): about 3 times
permeation rate, times greater than cyproterone acetate ([2]; versus cyproterone acetate): about 10 times
% Excreted, Free [3, 8]: 0 ± 0%
% Excreted, Total [3, 8]: 0.25 ± 0.10%
Analyte Excreted, Free [3, 8]: 0.16 ± 0.34 µg
Analyte Excreted, Total [3, 8]: 126.37 ± 48.99 µg
Analyte Excreted, Free [3, 9]: 2.72 ± 1.54 µg
Analyte Excreted, Total [3, 9]: 429.53 ± 178.24 µg

C[C@]12CCC(=O)C=C1CC[C@@H]1[C@@H]2CC[C@@]2(C)[C@H]1CC[C@]2(O)C(=O)CO [Cortexolone, cortexolone]
Analyte Excreted, Free [3, 8]: BLQL
Analyte Excreted, Total [3, 8]: 0.06 ± 0.26 µg
Analyte Excreted, Free [3, 9]: BLQL
Analyte Excreted, Total [3, 9]: 0.64 ± 0.74 µg

CC(=O)O[C@]1(C(C)=O)CC[C@H]2[C@@H]3C=C(Cl)C4=CC(=O)[C@@H]5C[C@@H]5[C@]4(C)[C@H]3CC[C@@]21C [Cyproterone Acetate, cyproterone acetate, reference compound]
Permeation rate [2]: 141 ± 17 ng/mL/h
Skin concentration [2]: 89.4 ± 4.6 µg/g

CC(C)(C)NC(=O)[C@H]1CC[C@H]2[C@@H]3CC[C@H]4NC(=O)C=C[C@]4(C)[C@H]3CC[C@]12C [finasteride]
Change from Baseline in non-vellus TAHC at Month 6, recalculated over a target area of 1 cm^2 (AGA [4]; Combined (study 087 + 089)): 12.2
Change from Baseline in non-vellus TAHC at Month 6, recalculated over a target area of 1 cm^2 (AGA [4]; Study 087): 13.6
Change from Baseline in non-vellus TAHC at Month 6, recalculated over a target area of 1 cm^2 (AGA [4]; Study 089): 11.5
decrease of serum DHT as well as scalp DHT compared to baseline [5]: up to 70%
Change from Baseline in non-vellus TAHC at Month 6 (AGA [6]; Combined (study 087 + 089), target area 5.1 cm^2): 62.4
Change from Baseline in non-vellus TAHC at Month 6 (AGA [6]; Study 087, target area 1-inch diameter circle, 5.1 cm^2, 1 mg per os once daily): 69.5
Change from Baseline in non-vellus TAHC at Month 6 (AGA [6]; Study 089, target area 1-inch diameter circle, 5.1 cm^2, 1 mg per os once daily): 58.4
patients with adverse events (decreased libido, erectile dysfunction, ejaculation disorders, decreased volume of ejaculate) [7]: 1%

From patent US10980819B2, “High concentration formulation” (Cassiopea S.P.A., priority 2015, dated 2021)
